US6365753B1, “Phthalimides and herbicide containing the same as active component” (Mitsubishi Chemical Corporation, priority 1998, dated 2002)

Assays:
Type in all cases: in vivo
[1] = system: Echinochloa crus-galli; experiment: Submerged treatment test; settings: 10 g/a active ingredient, treated 5th day from sowing, examined on the 2.8th day from treatment, herbicidal index
Experimental: (§1) Alluvial soil from a paddy field was put in a resin-made pot having an area of 200 cm^2. After fertilization, an adequate amount of water was added, and the soil was puddled and leveled. Seeds of Echinochloa crus-galli, Monochoria vaginalis, Rotala indica and Scirpus juncoides were sowed within a layer 0.5 cm below the surface of the soil. Water was poured onto the soil to keep a water depth of 3.5 cm.
(§2) On the 5th day from the sowing, the emulsifiable concentrate containing the compound of the invention as an active ingredient which was prepared in Formulation Example 3 was diluted with water. A prescribed amount of the diluted composition was dropped to the water so as to give 10 g of the active ingredient per are.
(§3) Cultivation was continued in a greenhouse, and the herbicidal effect was examined on the […] from the treatment. The results obtained are shown in Table 4 (the compound numbers in Table 4 correspond to those in Tables 1 and 2). The herbicidal effect was evaluated in terms of herbicidal index based on Y(%) obtained from equation:
(§4) y=[1−(Weight of weeds above the ground in a treated pot)/(Weight of weeds above the ground in a non-treated pot)]×100 (%)

[2] = system: Rotala indica; experiment: Submerged treatment test; settings: 10 g/a active ingredient, treated 5th day from sowing, examined on the 2.8th day from treatment, herbicidal index
Experimental: as §1, §2, §3, §4

[3] = system: Monochoria vaginalis; experiment: Submerged treatment test; settings: 10 g/a active ingredient, treated 5th day from sowing, examined on the 2.8th day from treatment, herbicidal index
Experimental: as §1, §2, §3, §4

[4] = system: Scirpus juncoides; experiment: Submerged treatment test; settings: 10 g/a active ingredient, treated 5th day from sowing, examined on the 2.8th day from treatment, herbicidal index
Experimental: as §1, §2, §3, §4

[5] = system: Chenopodium album; experiment: Soil treatment test pre-emergence application; settings: 10 g/a active ingredient, 28th day from treatment, herbicidal index
Experimental: (§5) Volcanic ash soil from a field was put in a resin-made pot having an area of 200 cm^2. After fertilization, soil previously mixed uniformly with the seeds of Digitaria ciliaris, Setaria viridis, Chenopodium album and Polygonum lapathifolium was scattered on the soil. The emulsifiable concentrate comprising the compound of the invention as an active ingredient which was obtained in Formulation Example 3 was diluted with water, and a prescribed amount of the diluted composition was sprayed uniformly to the surface of the soil by means of a small-sized power pressure spray to give 10 g of the active ingredient per are.
(§6) Thereafter, cultivation was continued in a greenhouse, and the herbicidal effect was examined on the 28th day from the treatment. The results obtained are shown in Table 5 (the compound numbers in Table 5 correspond to those in Tables 1 and 2). The herbicidal effect was evaluated based on the same criteria as in Test Example 1.

[6] = system: Setaria viridis; experiment: Soil treatment test pre-emergence application; settings: 10 g/a active ingredient, 28th day from treatment, herbicidal index
Experimental: as §5, §6

[7] = system: Polygonum lapathifolium; experiment: Soil treatment test pre-emergence application; settings: 10 g/a active ingredient, 28th day from treatment, herbicidal index
Experimental: as §5, §6

[8] = system: Digitaria ciliaris; experiment: Soil treatment test pre-emergence application; settings: 10 g/a active ingredient, 28th day from treatment, herbicidal index
Experimental: as §5, §6

[9] = system: Echinochloa crus-galli; experiment: Foliar treatment test (1) post-emergence application; settings: foliar treatment post-emergence at 1.0- to 2.0-leaf stage, 10 g/a active ingredient, 21st day from treatment; herbicidal index
Experimental: (§7) Volcanic ash soil from a field was put in a resin-made pot having an area of 200 cm^2. After fertilization, the seeds of Brassica juncea, Ipomoea purpurea, Echinochloa crus-galli and Alopeculus aequalis were cast on the soil and uniformly covered with the soil.
(§8) Cultivation was continued in a greenhouse, and when the weeds reached the 1.0- to 2.0-leaf stage, a prescribed amount of the emulsifiable concentrate comprising the compound of the invention as an active ingredient which was prepared in Formulation Example 3 as diluted with water was sprayed uniformly to the weeds by means of a small-sized power pressure spray to give 10 g of the active ingredient per are.
(§9) Thereafter, cultivation was further continued in the greenhouse, and the herbicidal effect was examined on the 21st day from the treatment. The results obtained are shown in Table 6 (the compound numbers in Table 6 correspond to those in Tables 1 and 2). The herbicidal effect was evaluated based on the same criteria as in Test Example 1.

[10] = system: Alopeculus aequalis; experiment: as above; settings: foliar treatment post-emergence at 1.0- to 2.0-leaf stage, 10 g/a active ingredient, 21st day from treatment; herbicidal index
Experimental: as §7, §8, §9

[11] = system: Brassica juncea; experiment: as above; settings: foliar treatment post-emergence at 1.0- to 2.0-leaf stage, 10 g/a active ingredient, 21st day from treatment; herbicidal index
Experimental: as §7, §8, §9

[12] = system: Ipomoea purpurea; experiment: as above; settings: foliar treatment post-emergence at 1.0- to 2.0-leaf stage, 10 g/a active ingredient, 21st day from treatment; herbicidal index
Experimental: as §7, §8, §9
Further: ranges in brackets are in %.

| SMILES | Herbicidal Effect Echinochloa crus-galli [1] | Herbicidal Effect Rotala indica [2] | Herbicidal Effect Monochoria vaginalis [3] | Herbicidal Effect Scirpus juncoides [4] | Herbicidal Effect Chenopodium album [5] | Herbicidal Effect Setaria viridis [6] | Herbicidal Effect Polygonum lapathifolium [7] | Herbicidal Effect Digitaria ciliaris [8] | Herbicidal Effect Echinochloa crus-galli [9] | Herbicidal Effect Alopeculus sequalis [10] | Herbicidal Effect Brassica juncea [11] | Herbicidal Effect Ipompoea-purpurea [12] |
| --- | --- | --- | --- | --- | --- | --- | --- | --- | --- | --- | --- | --- |
| CCOC(=O)C(Cl)Cc1cc(N2C(=O)c3ccc(F)cc3C2=O)c(F)cc1Cl (centres unmarked) [Compound 15, Ethyl 2-Chloro-3-[2-chloro-4-fluoro-5-(4-fluorophthalimido)phenyl]propionate] | 4 (71-90) | 5 (91-100) | 5 (91-100) | 3 (51-70) | 5 (91-100) | 2 (31-50) | 5 (91-100) | 2 (31-50) | 4 (71-90) | 4 (71-90) | 5 (91-100) | 5 (91-100) |
| C=CCNC(=O)C(Cl)Cc1cc(N2C(=O)c3ccccc3C2=O)c(F)cc1Cl (centres unmarked) [Compound 12] | 5 (91-100) | 5 (91-100) | 5 (91-100) | 1 (6-30) | 5 (91-100) | 4 (71-90) | 4 (71-90) | 4 (71-90) | 4 (71-90) | 2 (31-50) | 5 (91-100) | 5 (91-100) |
| CN(C)C(=O)C(Cl)Cc1cc(N2C(=O)c3ccccc3C2=O)c(F)cc1Cl (centres unmarked) [Compound 14] | 5 (91-100) | 5 (91-100) | 5 (91-100) | 3 (51-70) | 5 (91-100) | 3 (51-70) | 5 (91-100) | 3 (51-70) | 3 (51-70) | 4 (71-90) | 5 (91-100) | 5 (91-100) |
| COC(=O)C(Cl)Cc1cc(N2C(=O)c3ccccc3C2=O)c(F)cc1Cl (centres unmarked) [Compound 4, Methyl 2-Chloro-3-(2-chloro-4-fluoro-5-phthalimidophenyl)propionate] | – | – | – | – | 5 (91-100) | 0 (0-5) | 5 (91-100) | 0 (0-5) | 2 (31-50) | 1 (6-30) | 5 (91-100) | 5 (91-100) |
| CC(C)OC(=O)C(Cl)Cc1cc(N2C(=O)c3ccccc3C2=O)c(F)cc1Cl (centres unmarked) [Compound 7, Isopropyl 2-Chloro-3-(2-chloro-4-fluoro-5-phthalimidophenyl)propionate] | 5 (91-100) | 5 (91-100) | 5 (91-100) | 5 (91-100) | 5 (91-100) | 1 (6-30) | 5 (91-100) | 1 (6-30) | 3 (51-70) | 2 (31-50) | 5 (91-100) | 5 (91-100) |
| CCCOC(=O)C(Cl)Cc1cc(N2C(=O)c3ccccc3C2=O)c(F)cc1Cl (centres unmarked) [Compound 6] | 5 (91-100) | 5 (91-100) | 5 (91-100) | 5 (91-100) | 5 (91-100) | 0 (0-5) | 5 (91-100) | 0 (0-5) | 2 (31-50) | 2 (31-50) | 5 (91-100) | 5 (91-100) |
